Measurements: ChEMBL document CHEMBL1201862, “PubChem BioAssay data set” (2004)
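How tested: cells in 96-well plates exposed to compound for 48 hours at five concentrations. The concentration for 50% growth inhibition is given as GI50.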 The source made the active and inactive calls. Rule as the data show it: active = GI50 up to about 1.1 µM and inactive = higher.

How the values were obtained:
Test in all cases: growth of human tumour cells (NCI), 48 h
HCT-116 = system: HCT-116
CAKI-1 = system: CAKI-1
786-0 = system: 786-0
K562 = system: K562
MDA-N = system: MDA-N
CCRF-CEM = system: CCRF-CEM
SW-620 = system: SW-620
NCI/ADR-RES = system: NCI/ADR-RES
PC-3 = system: PC-3
RXF 393 = system: RXF 393
M14 = system: M14
HOP-62 = system: HOP-62
T47D = system: T47D
MDA-MB-231 = system: MDA-MB-231
LOX IMVI = system: LOX IMVI
UACC-257 = system: UACC-257
MCF7 = system: MCF7
EKVX = system: EKVX
OVCAR-5 = system: OVCAR-5
HCT-15 = system: HCT-15

**Q.** Which results are given for ClC(Cl)(Cl)C1=N[C@H]2[C@H](Br)[C@@H]3O[C@@H](c4ccccc4)[C@H](c4ccccc4)O[C@@H]3[C@H]2O1?
**A.** GI50 (HCT-116): 18.7 µM (inactive); GI50 (CAKI-1): 16 µM (inactive); GI50 (786-0): 21.4 µM (inactive); GI50 (K562): 21.2 µM (inactive); GI50 (MDA-N): 20.3 µM (inactive); GI50 (CCRF-CEM): 17.7 µM (inactive); GI50 (SW-620): 19.6 µM (inactive); GI50 (NCI/ADR-RES): 25.7 µM (inactive); GI50 (PC-3): 16 µM (inactive); GI50 (RXF 393): 20.5 µM (inactive); GI50 (M14): 23.8 µM (inactive); GI50 (HOP-62): 18.6 µM (inactive); GI50 (T47D): 30.2 µM (inactive); GI50 (MDA-MB-231): 23 µM (inactive); GI50 (LOX IMVI): 17.1 µM (inactive); GI50 (UACC-257): 18.3 µM (inactive); GI50 (MCF7): 17.3 µM (inactive); GI50 (EKVX): 26.2 µM (inactive); GI50 (OVCAR-5): 18.9 µM (inactive); GI50 (HCT-15): 27.2 µM

**Q.** How did the GI50 (HCT-116) turn out when O=[N+]([O-])/C(Cl)=C(\Nc1ccccc1)C(Cl)=C(Cl)Cl was run?
**A.** 36.1 µM (inactive)

**Q.** What about the GI50 (CAKI-1) of the same molecule?
**A.** 48.3 µM (inactive)

**Q.** What about the GI50 (786-0) of the same molecule?
**A.** 27.5 µM (inactive)

**Q.** What about the GI50 (K562) of the same molecule?
**A.** 25 µM (inactive)

**Q.** What about the GI50 (MDA-N) of the same molecule?
**A.** 36 µM (inactive)

**Q.** What about the GI50 (CCRF-CEM) of the same molecule?
**A.** 12.7 µM (inactive)

**Q.** What about the GI50 (NCI/ADR-RES) of the same molecule?
**A.** 16 µM (inactive)

**Q.** What about the GI50 (PC-3) of the same molecule?
**A.** 38.3 µM (inactive)

**Q.** What about the GI50 (RXF 393) of the same molecule?
**A.** 37.3 µM (inactive)

**Q.** And the GI50 (M14)?
**A.** 23.7 µM (inactive)

**Q.** What about the GI50 (HOP-62) of the same molecule?
**A.** 29 µM (inactive)

**Q.** What about the GI50 (T47D) of the same molecule?
**A.** 29.1 µM (inactive)

**Q.** What about the GI50 (MDA-MB-231) of the same molecule?
**A.** 34.4 µM (inactive)

**Q.** And the GI50 (LOX IMVI)?
**A.** 32.9 µM (inactive)

**Q.** What about the GI50 (UACC-257) of the same molecule?
**A.** 49.8 µM (inactive)

**Q.** What about the GI50 (MCF7) of the same molecule?
**A.** 14.3 µM (inactive)

**Q.** What about the GI50 (EKVX) of the same molecule?
**A.** 39.8 µM (inactive)

**Q.** What about the GI50 (OVCAR-5) of the same molecule?
**A.** 40.8 µM (inactive)

**Q.** And the GI50 (HCT-15)?
**A.** 25.4 µM

**Q.** How did the GI50 (HCT-116) turn out when CCOP(=O)(CC(=O)C1CC1)OCC was run?
**A.** > 100 µM (inactive)

**Q.** What about the GI50 (CAKI-1) of the same molecule?
**A.** > 100 µM (inactive)

**Q.** And the GI50 (786-0)?
**A.** > 100 µM (inactive)

**Q.** What about the GI50 (K562) of the same molecule?
**A.** > 100 µM (inactive)

**Q.** And the GI50 (MDA-N)?
**A.** > 100 µM (inactive)

**Q.** What about the GI50 (CCRF-CEM) of the same molecule?
**A.** > 100 µM (inactive)

**Q.** And the GI50 (SW-620)?
**A.** > 100 µM (inactive)

**Q.** What about the GI50 (NCI/ADR-RES) of the same molecule?
**A.** > 100 µM (inactive)

**Q.** And the GI50 (PC-3)?
**A.** > 100 µM (inactive)

**Q.** And the GI50 (RXF 393)?
**A.** 0.01 µM (active)

**Q.** What about the GI50 (M14) of the same molecule?
**A.** > 100 µM (inactive)

**Q.** What about the GI50 (HOP-62) of the same molecule?
**A.** > 100 µM (inactive)

**Q.** What about the GI50 (T47D) of the same molecule?
**A.** > 100 µM (inactive)

**Q.** What about the GI50 (MDA-MB-231) of the same molecule?
**A.** > 100 µM (inactive)

**Q.** And the GI50 (LOX IMVI)?
**A.** > 100 µM (inactive)

**Q.** What about the GI50 (UACC-257) of the same molecule?
**A.** > 100 µM (inactive)

**Q.** What about the GI50 (MCF7) of the same molecule?
**A.** > 100 µM (inactive)

**Q.** What about the GI50 (EKVX) of the same molecule?
**A.** > 100 µM (inactive)

**Q.** What about the GI50 (OVCAR-5) of the same molecule?
**A.** > 100 µM (inactive)

**Q.** What about the GI50 (HCT-15) of the same molecule?
**A.** > 100 µM

**Q.** Which results are given for COc1oc(C(=O)NC2CCCCC2)c(-c2ccc(Cl)cc2)c1S(=O)(=O)c1ccccc1?
**A.** GI50 (HCT-116): 33.3 µM (inactive); GI50 (CAKI-1): 3.37 µM (inactive); GI50 (786-0): 1.99 µM (inactive); GI50 (K562): 12.3 µM (inactive); GI50 (MDA-N): 64 µM (inactive); GI50 (CCRF-CEM): 2.2 µM (inactive); GI50 (SW-620): 38.2 µM (inactive); GI50 (NCI/ADR-RES): 2.76 µM (inactive); GI50 (PC-3): 10.7 µM (inactive); GI50 (RXF 393): 3.02 µM (inactive); GI50 (M14): 26.9 µM (inactive); GI50 (HOP-62): 6.27 µM (inactive); GI50 (T47D): 37.7 µM (inactive); GI50 (MDA-MB-231): 9.51 µM (inactive); GI50 (LOX IMVI): 2.78 µM (inactive); GI50 (UACC-257): 11.8 µM (inactive); GI50 (MCF7): 36.1 µM (inactive); GI50 (EKVX): 9.98 µM (inactive); GI50 (OVCAR-5): 23.4 µM (inactive); GI50 (HCT-15): 44.9 µM

**Q.** What does the source list for C=CC[C@@]1(C)CCCCCCCCC[C@@](C)(CC=C)C1=O?
**A.** GI50 (HCT-116): 32.9 µM (inactive); GI50 (CAKI-1): 35.4 µM (inactive); GI50 (786-0): 31.3 µM (inactive); GI50 (K562): 28.7 µM (inactive); GI50 (MDA-N): 50.8 µM (inactive); GI50 (CCRF-CEM): 20.2 µM (inactive); GI50 (SW-620): 24.6 µM (inactive); GI50 (NCI/ADR-RES): 32.7 µM (inactive); GI50 (PC-3): 37.1 µM (inactive); GI50 (RXF 393): 16.9 µM (inactive); GI50 (M14): 28.6 µM (inactive); GI50 (HOP-62): 38.4 µM (inactive); GI50 (T47D): 21.2 µM (inactive); GI50 (MDA-MB-231): 28.8 µM (inactive); GI50 (LOX IMVI): 18.1 µM (inactive); GI50 (UACC-257): 25.2 µM (inactive); GI50 (MCF7): 38.8 µM (inactive); GI50 (EKVX): 38.4 µM (inactive); GI50 (OVCAR-5): > 100 µM (inactive); GI50 (HCT-15): 29.4 µM
